# Assay results published in US9090584B2, “Therapeutic agents for treatment of ocular hypertension” (Allergan, Inc., priority 2010, dated 2015).
# Read-outs that look alike come from different tables or passages of the source.
# Legend:
# [1] = tested on: laser-induced hypertensive monkeys; settings: 0.05%, one single day dose, maximum at 6 h
# Method: (§1) U.S. Pat. No. 7,091,231 describes the methods used for these in vivo tests.
# (§2) Isopropyl 5-(2-(3′,4-difluoro-[1,1′-biphenyl]-3-ylcarboxamido)ethyl)thiophene-2-carboxylate was tested in normotensive dogs at 0.05%, dosing once daily for 5 days. […] This compound was also tested in laser-induced hypertensive monkeys, using one single day dose.
# (§3) 2-Hydroxyethyl 5-(2-(3′,4-difluoro-[1,1′-biphenyl]-3-ylcarboxamido)ethyl)thiophene-2-carboxylate was tested in normotensive dogs at 0.05%, dosing once daily for 5 days. […] This compound was also tested in laser-induced hypertensive monkeys, using one single day dose.
# normotensive dogs = settings: 0.05%, once daily for 5 days
# Method: as §1, §2, §3
# EP2 [2] = biological target: T1, EP2 (Homo sapiens, UniProt P43116); assay: EP2 flipr functional assay; type: cell-based
# Method: (§4) Data from running binding and activity studies on the compounds of the invention were carried out as described in U.S. Pat. No. 7,427,685, the contents of which are incorporated herein by reference.
# EP2 [3] = biological target: T1, EP2; assay: EP2 cAMP assay; type: cell-based
# Method: as §4
# EP2 [4] = biological target: T1, EP2; assay: EP2 binding
# Method: as §4
# EP4 [5] = biological target: T2, EP4 (Homo sapiens, UniProt P35408); assay: EP4 flipr functional assay; type: cell-based
# Method: as §4
# EP4 [6] = biological target: T2, EP4; assay: EP4 binding
# Method: as §4
# hEP3A = biological target: T3, hEP3A (Homo sapiens, UniProt P43115); assay: Other receptors functional assay, hEP3A; type: cell-based
# T3 sequence (P43115 1-390): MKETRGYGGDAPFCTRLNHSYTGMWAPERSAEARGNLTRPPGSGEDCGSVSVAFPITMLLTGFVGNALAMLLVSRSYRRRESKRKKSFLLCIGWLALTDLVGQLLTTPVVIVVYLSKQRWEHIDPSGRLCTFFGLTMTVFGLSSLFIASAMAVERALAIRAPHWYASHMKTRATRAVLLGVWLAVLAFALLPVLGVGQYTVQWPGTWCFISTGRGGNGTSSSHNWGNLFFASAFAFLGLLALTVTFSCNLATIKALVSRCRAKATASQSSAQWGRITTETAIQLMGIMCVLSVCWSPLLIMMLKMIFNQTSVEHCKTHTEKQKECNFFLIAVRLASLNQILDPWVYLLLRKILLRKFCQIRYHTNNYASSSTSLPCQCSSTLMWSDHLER
# Method: as §4
# T1 sequence (P43116 whole entry): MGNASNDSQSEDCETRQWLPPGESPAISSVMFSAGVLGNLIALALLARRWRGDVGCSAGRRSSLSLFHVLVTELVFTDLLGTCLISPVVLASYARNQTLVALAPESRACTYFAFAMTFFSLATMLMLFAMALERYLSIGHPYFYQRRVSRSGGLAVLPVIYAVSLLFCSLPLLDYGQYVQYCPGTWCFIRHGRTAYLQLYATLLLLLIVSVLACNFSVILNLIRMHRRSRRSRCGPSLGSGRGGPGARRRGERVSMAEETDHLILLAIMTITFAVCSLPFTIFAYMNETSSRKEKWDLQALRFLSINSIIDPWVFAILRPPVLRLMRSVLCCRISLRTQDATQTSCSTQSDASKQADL
# T2 sequence (P35408 whole entry): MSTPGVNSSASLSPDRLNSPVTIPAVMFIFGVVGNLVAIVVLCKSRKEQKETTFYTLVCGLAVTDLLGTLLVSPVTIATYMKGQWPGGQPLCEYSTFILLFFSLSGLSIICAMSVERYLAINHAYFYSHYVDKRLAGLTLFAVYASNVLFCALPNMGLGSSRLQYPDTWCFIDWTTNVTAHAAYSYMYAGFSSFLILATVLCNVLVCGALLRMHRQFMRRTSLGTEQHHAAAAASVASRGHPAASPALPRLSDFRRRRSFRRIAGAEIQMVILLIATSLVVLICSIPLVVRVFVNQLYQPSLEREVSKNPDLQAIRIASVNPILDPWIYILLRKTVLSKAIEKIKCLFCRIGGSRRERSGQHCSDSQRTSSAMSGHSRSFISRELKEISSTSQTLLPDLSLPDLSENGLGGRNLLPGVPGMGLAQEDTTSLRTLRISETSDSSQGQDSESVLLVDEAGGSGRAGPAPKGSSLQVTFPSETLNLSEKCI
SMILES,maximum IOP decrease from baseline [1] [mmHg],maximum IOP decrease from baseline (percent) [1] [%],maximum intraocular pressure (IOP) decrease from baseline (normotensive dogs; maximum at 52 h) [mmHg],maximum intraocular pressure (IOP) decrease from baseline (percent) (normotensive dogs; maximum at 52 h) [%],maximum ocular surface hyperemia (OSH) score (normotensive dogs; maximum at 54 h),EC50 (EP2 [2]) [µM],EC50 (EP2 [3]) [µM],Ki (EP2 [4]) [µM],EC50 (EP4 [5]) [µM],Ki (EP4 [6]) [µM],EC50 (hEP3A) [nM],maximum ocular surface hyperemia (OSH) score (normotensive dogs; maximum at 28 h),maximum intraocular pressure (IOP) decrease from baseline (normotensive dogs; maximum at 78 h) [mmHg],maximum intraocular pressure (IOP) decrease from baseline (percent) (normotensive dogs; maximum at 78 h) [%]
"O=C(OCCO)c1ccc(CCNC(=O)c2cc(-c3cccc(F)c3)ccc2F)s1 [2-Hydroxyethyl 5-(2-(3′,4-difluoro-[1,1′-biphenyl]-3-ylcarboxamido)ethyl)thiophene-2-carboxylate]",13.1,31,6.6,50,1.6,–,–,–,–,–,–,–,–,–
"O=C(O)c1ccc(CCNC(=O)c2cc(-c3cccc(F)c3)ccc2F)s1 [Compound 1, 5-(2-(3′,4-Difluoro-[1,1′-biphenyl]-3-ylcarboxamido)ethyl)thiophene-2-carboxylic acid]",–,–,–,–,–,0.049,0.002,0.063,5.14,0.648,8900,–,–,–
"O=C(O)c1ccc(CNC(=O)c2cc(-c3cccc(F)c3)ccc2F)s1 [Compound 2, 5-((3′,4-Difluoro-[1,1′-biphenyl]-3-ylcarboxamido)methyl)thiophene-2-carboxylic acid]",–,–,–,–,–,> 10,> 10,0.631,> 10,0.845,–,–,–,–
"O=C(O)c1ccc(CCCNC(=O)c2cc(-c3cccc(F)c3)ccc2F)s1 [Compound 3, 5-(3-(3′,4-Difluoro-[1,1′-biphenyl]-3-ylcarboxamido)propyl)thiophene-2-carboxylic acid]",–,–,–,–,–,0.031,0.005,0.177,> 10,1.48,3290,–,–,–
"O=C(O)c1ccc(CCCCNC(=O)c2cc(-c3cccc(F)c3)ccc2F)s1 [Compound 4, 5-(4-(3′,4-Difluoro-[1,1′-biphenyl]-3-ylcarboxamido)butyl)thiophene-2-carboxylic acid]",–,–,–,–,–,> 10,> 10,6.88,> 10,8.64,–,–,–,–
"O=C(NCCc1ccc(C(=O)O)s1)c1cccc(-c2cccc(F)c2)c1 [Compound 5, 5-(2-(3′-Fluoro-[1,1′-biphenyl]-3-ylcarboxamido)ethyl)thiophene-2-carboxylic acid]",–,–,–,–,–,0.026,0.008,0.15,6.02,0.739,> 10000,–,–,–
"O=C(NCCc1ccc(C(=O)O)s1)c1cc(F)cc(-c2cccc(F)c2)c1 [Compound 6, 5-(2-(3′,5-Difluoro-[1,1′-biphenyl]-3-ylcarboxamido)ethyl)thiophene-2-carboxylic acid]",–,–,–,–,–,0.011,0.004,0.122,4.44,0.75,4810,–,–,–
"O=C(NCCCc1ccc(C(=O)O)s1)c1cc(F)cc(-c2cccc(F)c2)c1 [Compound 7, 5-(3-(3′,5-Difluoro-[1,1′-biphenyl]-3-ylcarboxamido)propyl)thiophene-2-carboxylic acid]",–,–,–,–,–,0.037,0.005,0.126,> 10,0.814,1420,–,–,–
"CC(C)OC(=O)c1ccc(CCNC(=O)c2cc(-c3cccc(F)c3)ccc2F)s1 [Isopropyl 5-(2-(3′,4-difluoro-[1,1′-biphenyl]-3-ylcarboxamido)ethyl)thiophene-2-carboxylate]",6.9,19,–,–,–,–,–,–,–,–,–,0.8,5.2,32
